Test results from US20160130224A1, “Novel Pyrrole Derivatives” (priority 2013, published 2016).

Assays:
[1] = Solubility testing in PBS or 0.9% saline; type: physicochemical; settings: result in words
Description: Solubility studies were performed by charging a vial with 5-10 mg of compound followed by the 40 addition of PBS solution or 0.9% saline to achieve a concentration of 100 mg/ml. If solubility was not observed the solution was diluted to concentrations of 50 mg/ml, 25 mg/ml and 4 mg/ml consecutively until complete solubility was observed.

pneumolysin [2] = target: T1, pneumolysin (Streptococcus pneumoniae serotype 2, UniProt Q04IN8); assay: Inhibition of pneumolysin-induced lactate dehydrogenase (LDH) release from A549 human lung epithelial cells; type: cell-based
Description: Pneumolysin induces the release of lactate dehydrogenase (LDH) from human monocytes and lung epithelial cells: a phenomenon that is indicative of plasma membrane damage or rupture [Infect. Immun. (2002) 70 1017-1022].
Human lung epithelial cells (A549) were seeded in flat-bottomed 96-well tissue culture plates and grown in RPMI 1640 medium supplemented with Glutamine, at 37° C., 5% CO2, for 24 h.
Before use, the cells were washed with PBS. Test compound dilutions were incubated with pneumolysin as described in Section A, then transferred to wells containing the human lung epithelial cells and the plates were incubated at 37° C., 5% CO2, for 30 min. The following controls were included on the plate (1) Negative controls, called low control (PBS only) to measure the natural release of LDH from the cells in culture, (2) positive controls (1% (v/v) Triton-X in PBS) to measure the maximum release of LDH from the cells (3) Pneumolysin solution only to measure pneumolysin-induced LDH release, (4) Test compound solution to assess the toxicity of the compound alone. […] Absorbance at 490 nm and 655 nm was then measured. The percentage of LDH release induced by pneumolysin in the presence and absence of test compounds was plotted against the Log of the concentration of the compound and the IC50 was determined, as described above in the inhibition of haemolysis assay, Section A.

pneumolysin [3] = target: T1, pneumolysin; assay: Ex vivo meningitis assay: effect of pneumolysin on ciliary function of cultured ependymal cells; type: cell-based; settings: rat ependymal cells; compound 1.56 μM; recorded over 30 min; FIG. 2
Source text: The ependymal ciliated cells line the cerebral ventricles of the brain and the central canal of the spinal cord and are covered with cilia responsible for the circulation of the cerebrospinal fluid (CSF) around the central nervous system. This layer acts as a selective brain barrier to and from the cerebrospinal fluid and plays a role in controlling the CSF volume. To study if the inhibitors prevent the damage caused by pneumolysin on the ependymal layer, a rat ex vivo model of meningitis was used. This model is based on culturing and differentiating ciliated ependymal cells from neonate rat brains, which recreate the in vivo situation, where cells lining the brain ventricles, are exposed to S. pneumoniae and its toxic products.
Ependymal cell cultures were prepared by the method previously described [Microb. Pathog. (1999) 27 303-309]. Tissue culture trays were coated with bovine fibronectin and incubated at 37° C. in 5% (v/v) CO2 for 2 h before use. […]
After approximately two weeks, the cells were fully ciliated and ready for experiments. […] Beating cilia were recorded before and after exposure over 30 min, with a digital high-speed video camera at a rate of 500 frames/s. The recorded video sequences were played back at reduced frame rates and the ciliary beat frequency (CBF) was determined by the following equation: […]

pneumolysin [4] = target: T1, pneumolysin; assay: Inhibition of the haemolytic activity of pneumolysin (sheep erythrocytes); type: cell-based; settings: pneumolysin at LD100, sheep erythrocytes, 37° C., read-out: IC50
Description: The basis of this assay is that when pneumolysin is added to red blood cells, it induces their lysis and leads to the release of haemoglobin. In the presence of an inhibitory compound, pneumolysin-induced lysis is abolished, the red blood cells pellet at the bottom of the microtitre plate well and the supernatant is clear. However, if the compound is not inhibitory, the red blood cells are lysed and haemoglobin is released into the supernatant.
Test compound solutions (typically at 5 mM in DMSO) were diluted 1:1 in 100% DMSO. The compounds were then two-fold serially diluted in 100% DMSO across 11 wells of 96-well round-bottomed microtitre plate. PBS was then added to all the wells to achieve a 1:10 dilution of the compound in PBS. Pneumolysin was then added at a concentration equal to its LD100. Plates were then incubated at 37° C. for 30-40 min. After the incubation period, an equal volume of 4% (v/v) sheep erythrocyte suspension was added to each well and the plates incubated again at 37° C., for at least 30 min. Controls with only erythrocytes in PBS (control for no lysis) or erythrocytes plus pneumolysin (control for lysis) were prepared following the same procedure. Following the incubation with the erythrocytes, the Absorbance at 595 nm of each well was measured and the data used to determine the IC50 for each test compound. The IC50 values were determined using non-linear regression curve fitting. For that, the Log of the concentrations of the test compound was plotted against the percentage inhibition, estimated from the A595 values, followed by fitting a Hill Slope to the data.

[5] = Chemical stability assessment in PBS at 37.5° C. (HPLC); type: physicochemical; settings: buffer, pH 6.2, read-out: Chemical stability at pH 6.2-7.2 (t1/2) (converted)
Description: (§1) Stability studies were carried out by dissolving 1-2 mg of compound in DMSO (1 mL) followed by addition of 0.4 mL of the resulting solution to stirred PBS solution (9.6 mL) at 37.5° C. A sample (ca. 0.5 mL) was immediately taken for HPLC analysis. Further samples were then taken for analysis at various timepoints thereafter. Half-lives were determined from the decrease in concentration of compound with respect to time.
as §1, with “performed” for “carried out”, “ml)” for “mL)”, “ml” for “mL”, “PBS” for “PBS solution”, “(˜0.5 ml)” for “(ca. 0.5 mL)”, “time-points” for “timepoints”

T1 sequence (Q04IN8 whole entry): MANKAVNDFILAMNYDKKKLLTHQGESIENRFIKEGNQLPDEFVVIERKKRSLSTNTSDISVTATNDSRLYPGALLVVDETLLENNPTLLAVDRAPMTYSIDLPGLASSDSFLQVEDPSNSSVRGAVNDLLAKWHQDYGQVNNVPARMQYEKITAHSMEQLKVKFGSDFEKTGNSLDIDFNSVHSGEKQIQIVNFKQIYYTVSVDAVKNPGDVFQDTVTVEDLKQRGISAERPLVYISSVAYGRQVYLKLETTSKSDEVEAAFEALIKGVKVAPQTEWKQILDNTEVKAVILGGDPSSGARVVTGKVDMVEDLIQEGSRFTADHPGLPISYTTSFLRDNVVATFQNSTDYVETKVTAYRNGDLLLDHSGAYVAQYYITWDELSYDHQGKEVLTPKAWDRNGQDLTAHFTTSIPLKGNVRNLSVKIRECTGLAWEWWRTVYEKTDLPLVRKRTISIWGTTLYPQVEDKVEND

For `COc1ccc(-n2c(C(=O)N(C)C)c(O)c(O)c2C(=O)N(C)C)cc1` [UL1-005, 3,4-Dihydroxy-1-(4-methoxyphenyl)-N^2,N^2,N^5,N^5-tetramethyl-1H-pyrrole-2,5-dicarboxamide], the “Solubility in 0.9% (w/v) saline, pH 6.5 or PBS pH 7.2” value [1] was “Not soluble”, the IC50 (pneumolysin [2]) was under 490 nM and the “Ciliary beating frequency (CBF) in the presence of pneumolysin” value (pneumolysin [3]) was “No significant loss of the CBF”. For the same molecule, the IC50 (pneumolysin [4]; Table 1) was 200 nM, the IC50 (pneumolysin [4]; Table 2) was 200 nM and the half-life [5] was under 30 min.
